For three compounds, MIC results are on record in US4876245A, “Fluorine-containing macrolide compounds and their use” (Daikin Industries Ltd., priority 1986, dated 1989).

What all share (format): cell-based
Assay [1] relates to Mycoplasma homilis. As to the kind of experiment: antimicrobial activity, agar streak method (MIC).
For assay [2], the system named is Bacterioides fragilis. As to the kind of experiment: antimicrobial activity, agar streak method (MIC), anaerobic.
The test system of assay [3] is Bacillus natto. As to the kind of experiment: antimicrobial activity, agar streak method (MIC), aerobic gram-positive. The note with it: Bacillus subtilis.
The subject of assay [4] is Staphylococcus aureus. The assay is described as above.
The test system of assay [5] is Micrococcus luteus. The assay is described as above.
For assay [6], the system named is Neisseria gonorrhoeae. As to the kind of experiment: antimicrobial activity, agar streak method (MIC), aerobic gram-negative.
For assay [7], the system named is Corynebacterium diphtheriae. As to the kind of experiment: antimicrobial activity, agar streak method (MIC), aerobic gram-positive.
Assay [8] concerns Bacillus subtilis. The assay is described as above.
The subject of assay [9] is Escherichia coli. As to the kind of experiment: antimicrobial activity, agar streak method (MIC), aerobic gram-negative.
The test system of assay [10] is Fusobacterium necrophorum. Put plainly: antimicrobial activity, agar streak method (MIC), anaerobic.
The subject of assay [11] is Clostridium perfringens. Put plainly: microbe, parasite or virus in culture.
For assay [12], the system named is Shigella sonnei. Put plainly: antimicrobial activity, agar streak method (MIC), aerobic gram-negative. From the text: The antimicrobial activities of 8,9-difluoroerythromycin 6,9-epoxide (Example 1), 8,9-difluoroerythromycin 6,9-epoxide 11,12-carbonate (Example 2) and 8,9-difluoroerythromycin 6,9-epoxide 11,12-sulfite (Example 4) are examined by an agar streak method and expressed in terms of minimal inhibitory concentrations (MIC, μg/ml) against the following bacteria.

In assay [13] the test system is Salmonella typhi. Described as above. The settings on record: Salmonella enterica.
For assay [14], the system named is Hemophilus influenzae. The description is as above. The note with it: Haemophilus influenzae.
Assay [15] has as its system Streptococcus pneumoniae. As to the kind of experiment: antimicrobial activity, agar streak method (MIC), aerobic gram-positive.
The test system of assay [16] is Proteus vulgaris. Put plainly: antimicrobial activity, agar streak method (MIC), aerobic gram-negative.
For assay [17], the system named is Streptococcus pyogenes. As to the kind of experiment: antimicrobial activity, agar streak method (MIC), aerobic gram-positive.
For assay [18], the system named is Acholeplasma laidlawii. Put plainly: antimicrobial activity, agar streak method (MIC), aerobic gram-negative.
Assay [19] concerns Streptococcus faecalis. As to the kind of experiment: antimicrobial activity, agar streak method (MIC), aerobic gram-positive. The settings on record: Enterococcus faecalis.
Assay [20] concerns Pseudomonas aeruginosa. Put plainly: antimicrobial activity, agar streak method (MIC), aerobic gram-negative.

Converted amounts (≈) assume the structure as drawn.

For the compound `CC[C@H]1OC(=O)[C@H](C)[C@@H](O[C@H]2C[C@@](C)(OC)[C@@H](O)[C@H](C)O2)[C@H](C)[C@@H](O[C@@H]2O[C@H](C)C[C@H](N(C)C)[C@H]2O)[C@@]2(C)CC(C)(F)C(F)(O2)[C@H](C)[C@@H](O)[C@]1(C)O` (stereo partly drawn) [Example 1, 8,9-difluoroerythromycin A 6,9-epoxide], the MIC in [1] stood at 25 µg/mL (≈ 33.2 µM); in assay [2], 0.21 µg/mL (≈ 0.279 µM); in [3], 0.078 µg/mL (≈ 0.103 µM); in [4], 0.156 µg/mL (≈ 0.207 µM); in [5], 0.006 µg/mL (≈ 0.00796 µM); in assay [6], 0.052 µg/mL (≈ 0.069 µM). The MIC in [7] is 0.011 µg/mL (≈ 0.0146 µM); in [8] it was 0.049 µg/mL (≈ 0.065 µM); in [9] it was 31.2 µg/mL (≈ 41.5 µM); in [10] it was 2 µg/mL (≈ 2.65 µM); in assay [11] it was 0.83 µg/mL (≈ 1.1 µM); in [12] it was 25 µg/mL (≈ 33.2 µM). Besides, the MIC turned out to be 13.2 µg/mL (≈ 17.5 µM) in assay [13]; 3.5 µg/mL (≈ 4.64 µM) in [14]; 0.025 µg/mL (≈ 0.0332 µM) in [15]; 26 µg/mL (≈ 34.5 µM) in assay [16]; 0.011 µg/mL (≈ 0.0146 µM) in assay [17]; 0.1 µg/mL (≈ 0.133 µM) in assay [18]. Besides, the MIC in assay [19] came to 1.25 µg/mL (≈ 1.66 µM); in [20], 26 µg/mL (≈ 34.5 µM).
Turning to `CC[C@H]1OC(=O)[C@H](C)[C@@H](O[C@H]2C[C@@](C)(OC)[C@@H](O)[C@H](C)O2)[C@H](C)[C@@H](O[C@@H]2O[C@H](C)C[C@H](N(C)C)[C@H]2O)[C@@]2(C)CC(C)(F)C(F)(O2)[C@H](C)[C@H]2OC(=O)O[C@@]21C` (stereo partly drawn) [Example 2, 8,9-difluoroerythromycin A 6,9-epoxide 11,12-carbonate], the MIC in assay [1] turned out to be 25 µg/mL (≈ 32.1 µM); in assay [2], 0.84 µg/mL (≈ 1.08 µM); in assay [3] it was 0.078 µg/mL (≈ 0.1 µM); in [4], 0.156 µg/mL (≈ 0.2 µM); in assay [5], 0.02 µg/mL (≈ 0.0256 µM); in assay [6] it was 0.052 µg/mL (≈ 0.0667 µM). Besides, the MIC in [7] was 0.022 µg/mL (≈ 0.0282 µM); in assay [8] it was 0.049 µg/mL (≈ 0.0628 µM); in assay [9] it was 7.8 µg/mL (≈ 10 µM); in [10] it was 8 µg/mL (≈ 10.3 µM); in assay [11] it was 3.3 µg/mL (≈ 4.23 µM); in [12], 12.5 µg/mL (≈ 16 µM). In addition, the MIC in assay [13] is 13.2 µg/mL (≈ 16.9 µM); in [14], 7 µg/mL (≈ 8.98 µM); in [15] it was 0.013 µg/mL (≈ 0.0167 µM); in [16] it was 26 µg/mL (≈ 33.3 µM); in assay [17], 0.011 µg/mL (≈ 0.0141 µM); in assay [18] it was 0.2 µg/mL (≈ 0.256 µM). For the same compound, the MIC was determined as 0.625 µg/mL (≈ 0.801 µM) in [19] and 26 µg/mL (≈ 33.3 µM) in [20].
Take `CC[C@H]1OC(=O)[C@H](C)[C@@H](O[C@H]2C[C@@](C)(OC)[C@@H](O)[C@H](C)O2)[C@H](C)[C@@H](O[C@@H]2O[C@H](C)C[C@H](N(C)C)[C@H]2O)[C@@]2(C)CC(C)(F)C(F)(O2)[C@H](C)[C@H]2OS(=O)O[C@@]21C` (stereo partly drawn) [Example 4, 8,9-difluoroerythromycin A 6,9-epoxide 11,12-sulfite]: the MIC was determined as 25 µg/mL (≈ 31.3 µM) in assay [1]; 0.84 µg/mL (≈ 1.05 µM) in assay [2]; 0.078 µg/mL (≈ 0.0975 µM) in assay [3]; 0.156 µg/mL (≈ 0.195 µM) in assay [4]; 0.02 µg/mL (≈ 0.025 µM) in assay [5]; 0.052 µg/mL (≈ 0.065 µM) in assay [6]. In addition, the MIC in assay [7] is 0.022 µg/mL (≈ 0.0275 µM); in assay [8], 0.049 µg/mL (≈ 0.0613 µM); in [9] it was 7.8 µg/mL (≈ 9.75 µM); in [10], 8 µg/mL (≈ 10 µM); in assay [11], 0.3 µg/mL (≈ 0.375 µM); in assay [12] it was 12.5 µg/mL (≈ 15.6 µM). In addition, the MIC in [13] was 13.2 µg/mL (≈ 16.5 µM); in assay [14] it was 7 µg/mL (≈ 8.75 µM); in assay [15], 0.013 µg/mL (≈ 0.0163 µM); in assay [16] it was 26 µg/mL (≈ 32.5 µM); in assay [17], 0.011 µg/mL (≈ 0.0138 µM); in [18], 0.2 µg/mL (≈ 0.25 µM). The MIC is 0.625 µg/mL (≈ 0.781 µM) in assay [19] and 26 µg/mL (≈ 32.5 µM) in [20].
